Assay results taken from US20250163062A1, “WNT PATHWAY INHIBITOR COMPOUNDS” (ADLAI NORTYE BIOPHARMA CO., LTD., priority 2022, published 2025).
pIC50: −log10 of the molar value. Like-named read-outs stand apart in the source and are kept apart here.

Experiments:
Assay type in all cases: cell-based
RKO = assay: Proliferation inhibition test, non-Wnt mutant control cell line RKO; conditions: Homo sapiens; RKO (Wnt pathway not activated, control), 96 h culture, maximum concentration 10 uM; read-out: Antiproliferation IC50 RKO
Text: (§1) The cell lines used in the experiment are Colo205, H929, HepG2, and DU4475, which have sustained activation of the Wnt pathway and whose proliferation is Wnt pathway-dependent. On the other hand, RKO cell line, in which normally the Wnt pathway is not activated and whose proliferation is not Wnt pathway-dependent, was used as a control cell line. This was done to determine whether the inhibitory effect of the compound of the present disclosure on Wnt-dependent proliferation is due to other nonspecific toxicity.
(§2) Colo205, H929, DU4475, HepG2 and RKO cell lines cultured in their respective culture media were treated in the logarithmic growth phase, and the cells were collected and prepared into a uniform cell suspension of known concentration, and then added to a 96-well cell culture plate so that each well contained 1000-4000 cells. Place in a 5% CO2 cell culture incubator and culture at 37° C. for 20-24 h. On the second day, add the completely dissolved, 3-fold gradient dilution compound to each cell culture well to make the final maximum concentration in the cell culture well 10 uM, and continue to culture for 96 h. This test uses Promega's cell activity detection test for detection. The more the cells proliferate, the stronger the final signal intensity. The detection instrument is SpectraMax, full wavelength mode. The wells with only DMSO added were used as positive control wells, and the wells without cells inoculated were used as negative control wells.

HepG2 = assay: Proliferation inhibition test, Wnt mutant cell line HepG2; conditions: HepG2, 96 h culture with compound, read-out: Antiproliferation IC50 HepG2
Text: as §1, §2

DU4475 = assay: Proliferation inhibition test, Wnt mutant cell line DU4475; conditions: Homo sapiens, DU-4475, 96 h, DU4475, 96 h culture with compound; read-out: Antiproliferation IC50 DU4475
Text: as §1, §2

[1] = system: Colo205-LUC-TCF/LEF reporter gene; assay: Colo205-LUC-TCF/LEF M1 reporter cell line luciferase inhibition; conditions: 4 hours incubation, firefly luciferase signal
Description: Colo205 cell line (Cell Bank of Chinese Academy of Sciences, Cat #TCHul02) was purchased from the Cell Bank of Chinese Academy of Sciences. After expansion and subculture, during the exponential growth phase, luciferase reporter plasmid (Promega) driven by TCF/LEF transcription factor was transfected by lipo3000 liposome transfection. The plasmid carries a resistance gene for resistance screening. Transfection was carried out in 10 cm culture dishes using conventional complete medium without resistance. After 2 days, the medium with resistance was replaced, and the culture was continued. After that, the medium with resistance was replaced every 2 days, and the suspended cells were discarded. The original medium was centrifuged to remove cells and debris and retained as an adaptive medium. When the cells covered the culture dish, the cells were digested, counted, and passaged in a 96-well plate, so that the average number of cells contained in each well was 1.5/well, and the adaptive medium was used for passage. The rest of the cells were frozen. After passage, culture for 4 hours to allow the cells to adhere to the wall, and then observe the number of cells in each well under a microscope. Wells with only 1 cell per well were labeled as monoclonal wells. Afterwards, normal culture was performed, and the culture medium was replaced every 2 days, and observed. There are wells where the monoclonal cells continue to grow in the early stage, and they are labeled twice, and can be replaced with normal medium with resistance. When a monoclonal well was overgrown with a 96-well plate, it is digested and passaged to a 24-well culture plate. After the 24-well plate is overgrown, it is passaged to a 96-well plate and a 6-well plate. The cells in a 96-well plate are at least 6 wells, of which 3 wells were added with known Wnt inhibitors, and the other 3 wells were not treated. After 24 hours, the cells in the 96-well plate were added with a fluorescence detection reagent to detect the fluorescence intensity. Cell lines with fluorescent expression when not treated and decreased fluorescent light after inhibition were selected and further cultured. The Colo205-LUC-TCF/LEF-M1 cell line is one of the cell lines screened above. Its growth curve, cell shape, and cell growth state are similar to those of the original Colo205 cells, and the ratio of the fluorescent signals of the inhibitor-treated and untreated cells is the largest among all cell lines, and the ratio can reach 4-5 times when inhibited at 4 hours, which was completely suitable for the screening of Wnt inhibitors in the later stage.
The Colo205-LUC-TCF/LEF M1 cell line is a reporter tool cell stably transfected with the pGL4.49-LUC2-TCF/LEF vector. The β-catenin Wnt pathway is continuously activated. After adding the inhibitor, the Wnt pathway is inhibited. The expression of firefly luciferase regulated by the TCF/LEF cis-element decreased, and after adding the detection substrate, the detected light signal decreased accordingly, so as to detect the inhibitory effect of the compound.
To a 96-well cell culture plate, add 100 uL of the compound with a maximum concentration of 20 uM to each well, and make a 3-fold serial dilution of the compound concentration. Then 10,000 colo205 cells stably transfected with the reporter gene and 100 uL medium were inoculated into each well, and corresponding positive and negative control wells were made at the same time. Put the cells in a 5% CO2 incubator and incubate at 37° C. for 4 hours. After 4 hours, remove the culture medium, add 100 μL of reagent (Promega) containing the corresponding firefly luciferase substrate to each well, and measure the activity of luciferase reporter gene. Luminescence intensity was read with SpectraMax in full wavelength mode. […]

Colo205 = assay: Proliferation inhibition test, Wnt mutant cell line Colo205; conditions: Colo205, 96 h culture with compound, read-out: Antiproliferation IC50 Colo205
Text: as §1, §2

H929 = assay: Proliferation inhibition test, Wnt mutant cell line H929; conditions: Homo sapiens, NCI-H929, 96 h, H929, 96 h culture with compound; read-out: Antiproliferation IC50 H929
Text: as §1, §2

| SMILES | pIC50 (HepG2; Homo sapiens, HepG2, 96 h) | pIC50 ([1]; 4 h) | pIC50 (Colo205; Homo sapiens, COLO 205, 96 h) | pIC50 (H929) | pIC50 (HepG2) | pIC50 [1] | pIC50 (Colo205) | pIC50 (RKO) | pIC50 (DU4475) |
| --- | --- | --- | --- | --- | --- | --- | --- | --- | --- |
| [2H]C([2H])([2H])N1c2nc(NCc3ccc(Oc4cnc(C(F)(F)F)nc4C)nc3)nc3c2N(CCC3)C(=O)[C@]1(C)CO [Compound 5, (S)-5-(Hydroxymethyl)-5-methyl-4-(methyl-d3)-2-(((6-((4-methyl-2-(trifluoromethyl)pyrimidin-5-yl)oxy)pyridin-3-yl)methyl)amino)-4,5,9,10-tetrahydro-6H,8H-pyrido[3,2,1-de]pteridin-6-one] | 7.47 | 7.29 | 7.69 | 6.79 | – | – | – | < 5.00 | 7.84 |
| Cc1nc(C(F)(F)F)ncc1Oc1ccc(CNc2nc3c4c(n2)N(C)[C@@](C)([C@H](C)O)C(=O)N4CCC3)cn1 [Compound 6, (S)-5-((S)-1-hydroxyethyl)-4,5-dimethyl-2-(((6-((4-methyl-2-(trifluoromethyl)pyrimidin-5-yl)oxy)pyridin-3-yl)methyl)amino)-4,5,9,10-tetrahydro-6H,8H-pyrido[3,2,1-de]pteridin-6-one] | – | – | – | 6.52 | 6.96 | 7.18 | 8.04 | < 5.00 | 7.32 |
| [2H]C([2H])([2H])N1c2nc(NCc3ccc(Oc4cnc(C(F)(F)F)nc4CC)nc3)nc3c2N(CCC3)C(=O)[C@]1(C)CO [Compound 7, (S)-2-(((6-((4-ethyl-2-(trifluoromethyl)pyrimidin-5-yl)oxy)pyridin-3-yl)methyl)amino)-5-(hydroxymethyl)-5-methyl-4-(methyl-d3)-4,5,9,10-tetrahydro-6H,8H-pyrido[3,2,1-de]pteridin-6-one] | 7.81 | 7.97 | 8.26 | 7.28 | – | – | – | < 5.00 | 8.44 |
| [2H]C([2H])([2H])N1c2nc(NCc3ccc(Oc4cnc(C(F)(F)F)nc4CC)nc3)nc3c2N(CCC3)C(=O)[C@@H]1CO [Compound 8, (S)-2-(((6-((4-ethyl-2-(trifluoromethyl)pyrimidin-5-yl)oxy)pyridin-3-yl)methyl)amino)-5-(hydroxymethyl)-4-(methyl-d3)-4,5,9,10-tetrahydro-6H,8H-pyrido[3,2,1-de]pteridin-6-one] | 7.45 | 7.49 | 7.62 | 7.06 | – | – | – | < 5.00 | 8.02 |
| [2H]C([2H])([2H])N1c2nc(NCc3ccc(Oc4cnc(C(F)(F)F)nc4C4CC4)nc3)nc3c2N(CCC3)C(=O)[C@@H]1CO [Compound 9, (S)-2-(((6-((4-cyclopropyl-2-(trifluoromethyl)pyrimidin-5-yl)oxy)pyridin-3-yl)methyl)amino)-5-(hydroxymethyl)-4-(methyl-d3)-4,5,9,10-tetrahydro-6H,8H-pyrido[3,2,1-de]pteridin-6-one] | 7.95 | 7.86 | 8.07 | 7.44 | – | – | – | < 5.00 | 9.34 |
| CCc1nc(C(F)(F)F)ncc1Oc1ccc(CNc2nc3c4c(n2)N(C)[C@@](C)([C@H](C)O)C(=O)N4CCC3)cn1 [Compound 14, (S)-2-(((6-((4-ethyl-2-(trifluoromethyl)pyrimidin-5-yl)oxy)pyridin-3-yl)methyl)amino)-5-((S)-1-hydroxyethyl)-4,5-dimethyl-4,5,9,10-tetrahydro-6H,8H-pyrido[3,2,1-de]pteridin-6-one] | 7.10 | 7.45 | 7.15 | – | – | – | – | < 5.00 | – |

Continued, in another order:

| pIC50 (HepG2; Homo sapiens, HepG2, 96 h) | pIC50 ([1]; 4 h) | pIC50 (Colo205; Homo sapiens, COLO 205, 96 h) | pIC50 (H929) | pIC50 (HepG2) | pIC50 [1] | pIC50 (Colo205) | SMILES | pIC50 (RKO) | pIC50 (DU4475) |
| --- | --- | --- | --- | --- | --- | --- | --- | --- | --- |
| 8.84 | 7.81 | 8.11 | 7.39 | – | – | – | [2H]C([2H])([2H])N1c2nc(NCc3ccc(Oc4ccc(C(F)(F)F)nc4Cl)nc3)nc3c2N(CCC3)C(=O)[C@@H]1CO [Compound 1, (S)-2-(((6-((2-chloro-6-(trifluoromethyl)pyridin-3-yl)oxy)pyridin-3-yl)methyl)amino)-5-(hydroxymethyl)-4-(methyl-d3)-4,5,9,10-tetrahydro-6H,8H-pyrido[3,2,1-de]pteridin-6-one] | < 5.00 | 8.50 |
| 8.77 | 7.65 | 8.06 | 7.32 | – | – | – | CN1c2nc(NCc3ccc(Oc4ccc(C(F)(F)F)nc4Cl)nc3)nc3c2N(CCC3)C(=O)[C@@H]1CO [Compound 2, (S)-2-(((6-((2-chloro-6-(trifluoromethyl)pyridin-3-yl)oxy)pyridin-3-yl)methyl)amino)-5-(hydroxymethyl)-4-methyl-4,5,9,10-tetrahydro-6H,8H-pyrido[3,2,1-de]pteridin-6-one] | < 5.00 | 8.30 |
| 8.66 | 7.81 | 8.35 | 7.70 | – | – | – | [2H]C([2H])([2H])N1c2nc(NCc3ccc(Oc4ccc(C(F)(F)F)nc4Cl)nc3)nc3c2N(CCC3)C(=O)[C@]1(C)CO [Compound 3, (S)-2-(((6-((2-chloro-6-(trifluoromethyl)pyridin-3-yl)oxy)pyridin-3-yl)methyl)amino)-5-(hydroxymethyl)-5-methyl-4-(methyl-d3)-4,5,9,10-tetrahydro-6H,8H-pyrido[3,2,1-de]pteridin-6-one] | < 5.00 | 8.51 |
| 7.05 | 7.18 | 7.37 | 6.56 | – | – | – | [2H]C([2H])([2H])N1c2nc(NCc3ccc(Oc4cnc(C(F)(F)F)nc4C)nc3)nc3c2N(CCC3)C(=O)[C@@H]1CO [Compound 4, (S)-5-(Hydroxymethyl)-4-(methyl-d3)-2-(((6-((4-methyl-2-(trifluoromethyl)pyrimidin-5-yl)oxy)pyridin-3-yl)methyl)amino)-4,5,9,10-tetrahydro-6H,8H-pyrido[3,2,1-de]pteridin-6-one] | < 5.00 | 7.59 |
| 8.89 | > 10.00 | 8.87 | – | – | – | – | CN(C)c1nc(C(F)(F)F)ccc1Oc1ccc(CNc2nc3c4c(n2)N(C)[C@@](C)(CO)C(=O)N4CCC3)cn1 [Compound 15, (S)-2-(((6-((2-(dimethylamino)-6-(trifluoromethyl)pyridin-3-yl)oxy)pyridin-3-yl)methyl)amino)-5-(hydroxymethyl)-4,5-dimethyl-4,5,9,10-tetrahydro-6H,8H-pyrido[3,2,1-de]pteridin-6-one] | < 5.00 | – |
